The record followed here is patent US8410112B2, “Compounds useful as inhibitors of ATR kinase” (Vertex Pharmaceuticals Incorporated, priority 2008, dated 2013).

pKi: −log10 of the molar value.

The target in this test is T1, full-length ATR (Homo sapiens, UniProt Q13535).
T1 construct: in the presence of 5 nM full-length ATR
T1 sequence (Q13535 whole entry): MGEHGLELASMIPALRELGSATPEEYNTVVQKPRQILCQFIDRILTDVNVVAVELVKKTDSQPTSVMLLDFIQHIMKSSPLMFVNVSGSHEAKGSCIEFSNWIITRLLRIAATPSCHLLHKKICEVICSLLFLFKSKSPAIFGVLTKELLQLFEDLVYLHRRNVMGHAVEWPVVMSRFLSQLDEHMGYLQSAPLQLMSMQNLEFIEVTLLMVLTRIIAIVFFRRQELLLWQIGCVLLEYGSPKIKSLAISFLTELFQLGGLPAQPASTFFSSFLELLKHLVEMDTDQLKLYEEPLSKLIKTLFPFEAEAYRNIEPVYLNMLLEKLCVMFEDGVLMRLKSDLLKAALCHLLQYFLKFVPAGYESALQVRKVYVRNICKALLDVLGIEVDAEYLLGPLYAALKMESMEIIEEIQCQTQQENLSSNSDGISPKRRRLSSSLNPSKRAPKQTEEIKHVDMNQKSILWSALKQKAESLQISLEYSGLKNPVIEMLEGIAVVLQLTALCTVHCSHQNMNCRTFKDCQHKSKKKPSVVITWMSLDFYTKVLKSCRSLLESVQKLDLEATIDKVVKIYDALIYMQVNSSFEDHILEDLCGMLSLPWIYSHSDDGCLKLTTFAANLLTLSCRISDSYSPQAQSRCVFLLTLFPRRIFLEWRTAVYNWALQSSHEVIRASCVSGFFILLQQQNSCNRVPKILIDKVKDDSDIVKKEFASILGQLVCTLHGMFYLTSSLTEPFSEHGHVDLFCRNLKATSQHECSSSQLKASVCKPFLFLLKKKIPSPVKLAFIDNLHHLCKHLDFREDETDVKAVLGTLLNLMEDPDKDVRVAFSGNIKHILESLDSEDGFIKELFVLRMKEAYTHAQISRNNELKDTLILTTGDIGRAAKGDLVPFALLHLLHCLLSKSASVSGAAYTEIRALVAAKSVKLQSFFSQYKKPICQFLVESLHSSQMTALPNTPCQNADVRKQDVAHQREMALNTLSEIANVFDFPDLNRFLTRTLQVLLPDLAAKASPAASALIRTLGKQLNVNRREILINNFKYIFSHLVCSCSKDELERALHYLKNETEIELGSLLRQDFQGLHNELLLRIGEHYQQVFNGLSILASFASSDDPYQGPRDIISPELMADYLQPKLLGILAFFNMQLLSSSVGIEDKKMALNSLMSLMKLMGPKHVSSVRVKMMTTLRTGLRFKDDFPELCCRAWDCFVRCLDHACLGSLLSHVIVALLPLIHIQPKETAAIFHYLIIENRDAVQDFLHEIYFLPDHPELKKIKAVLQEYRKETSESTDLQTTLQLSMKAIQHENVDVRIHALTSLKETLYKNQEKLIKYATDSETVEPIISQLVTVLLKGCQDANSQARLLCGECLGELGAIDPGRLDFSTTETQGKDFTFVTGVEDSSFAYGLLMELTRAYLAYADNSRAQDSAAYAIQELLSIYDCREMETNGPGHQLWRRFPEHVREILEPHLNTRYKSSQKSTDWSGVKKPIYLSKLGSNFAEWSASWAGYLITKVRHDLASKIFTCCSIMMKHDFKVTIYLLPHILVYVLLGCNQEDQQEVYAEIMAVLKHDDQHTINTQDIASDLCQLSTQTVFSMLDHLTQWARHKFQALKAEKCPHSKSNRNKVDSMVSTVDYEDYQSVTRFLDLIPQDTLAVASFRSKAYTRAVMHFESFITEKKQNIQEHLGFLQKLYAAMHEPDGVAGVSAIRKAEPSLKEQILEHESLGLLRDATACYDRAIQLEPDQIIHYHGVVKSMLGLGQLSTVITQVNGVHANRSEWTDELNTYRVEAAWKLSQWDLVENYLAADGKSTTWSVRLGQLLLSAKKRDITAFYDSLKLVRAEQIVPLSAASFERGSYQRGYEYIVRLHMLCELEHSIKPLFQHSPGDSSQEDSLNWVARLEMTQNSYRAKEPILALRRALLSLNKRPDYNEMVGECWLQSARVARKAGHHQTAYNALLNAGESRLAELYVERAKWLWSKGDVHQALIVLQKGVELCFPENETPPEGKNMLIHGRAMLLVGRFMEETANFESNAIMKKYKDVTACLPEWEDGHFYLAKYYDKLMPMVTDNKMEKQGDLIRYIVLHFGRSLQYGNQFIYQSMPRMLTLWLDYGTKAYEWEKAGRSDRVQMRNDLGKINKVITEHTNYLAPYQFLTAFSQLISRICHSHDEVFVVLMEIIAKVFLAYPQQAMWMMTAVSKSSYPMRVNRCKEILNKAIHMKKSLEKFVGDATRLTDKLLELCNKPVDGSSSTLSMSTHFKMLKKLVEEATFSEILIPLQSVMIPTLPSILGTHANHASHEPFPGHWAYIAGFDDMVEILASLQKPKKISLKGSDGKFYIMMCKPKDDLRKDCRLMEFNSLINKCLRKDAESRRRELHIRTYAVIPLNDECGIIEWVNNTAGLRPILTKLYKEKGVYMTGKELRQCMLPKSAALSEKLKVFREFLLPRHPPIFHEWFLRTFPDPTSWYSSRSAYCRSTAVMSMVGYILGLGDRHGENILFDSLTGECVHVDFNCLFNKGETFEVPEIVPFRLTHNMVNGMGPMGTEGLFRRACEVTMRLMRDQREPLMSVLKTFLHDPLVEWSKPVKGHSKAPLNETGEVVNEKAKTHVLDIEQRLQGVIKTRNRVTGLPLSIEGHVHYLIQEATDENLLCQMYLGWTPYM
Put plainly: ATR Inhibition Assay (radioactive-phosphate incorporation). It is filed as biochemical. Conditions: Ki(app); 5 nM full-length ATR, 10 μM ATP, 800 μM target peptide, 25° C. As for the experimental part:
Test compounds were screened for their ability to inhibit ATR kinase using a radioactive-phosphate incorporation assay. Assays were carried out in a mixture of 50 mM
Tris/HCl (pH 7.5), 10 mM MgCl2 and 1 mM DTT. Final substrate concentrations were 10 μM [γ-33P]ATP (3 mCi 33 P ATP/mmol ATP, Perkin Elmer) and 800 μM target peptide ([…]). Assays were carried out at 25° C. in the presence of 5 nM full-length ATR. An assay stock buffer solution was prepared containing all of the reagents listed above, with the exception of ATP and the test compound of interest. […] The plate was pre-incubated for 10 minutes at 25° C. and the reaction initiated by addition of 15 μL [γ-33P]ATP (final concentration 10 μM).
The reaction was stopped after […] by the addition of 30 μL 0.1M phosphoric acid containing 2 mM ATP. A multiscreen phosphocellulose filter 96-well plate (Millipore, Cat no. MAPHN0B50) was pretreated with 100 μL 0.2M phosphoric acid prior to the addition of 45 μL of the stopped assay mixture. The plate was washed with 5×200 μL 0.2M phosphoric acid.
After removing mean background values for all of the data points, Ki(app) data were calculated from non-linear regression analysis of the initial rate data using the Prism software package (GraphPad Prism version 3.0cx for Macintosh, GraphPad Software, San Diego Calif., USA).
`Nc1ncc(C2=CCN(S(=O)(=O)c3ccccc3)CC2)nc1-c1nnc(-c2ccccc2)o1` [Compound I-102, 3-(5-phenyl-1,3,4-oxadiazol-2-yl)-5-(1-(phenylsulfonyl)-1,2,3,6-tetrahydropyridin-4-yl)pyrazin-2-amine]: the pKi was more than 7.00. The figure for `Nc1ncc(N2CCN(C(=O)c3c(F)cccc3F)CC2)nc1-c1nnc(-c2ccccc2)o1` [Compound I-203, (4-(5-amino-6-(5-phenyl-1,3,4-oxadiazol-2-yl)pyrazin-2-yl)piperazin-1-yl)(2,6-difluorophenyl)methanone] is 6.00 to 7.00; for `Nc1ncc(N2CCCC2=O)nc1-c1nc2ccccc2[nH]1` [Compound I-75, 1-(5-amino-6-(1H-benzo[d]imidazol-2-yl)pyrazin-2-yl)pyrrolidin-2-one] it is 5.00 to 6.00; for `CCS(=O)(=O)N1CCN(c2cnc(N)c(-c3nc4ccccc4s3)n2)CC1` [Compound I-17, 3-(benzo[d]thiazol-2-yl)-5-(4-(ethylsulfonyl)piperazin-1-yl)pyrazin-2-amine] it is 6.00 to 7.00.

Take `CCS(=O)(=O)N1CCN(c2cnc(N)c(-c3nc4ccccc4n3C)n2)CC1` [Compound I-15, 5-(4-(ethylsulfonyl)piperazin-1-yl)-3-(1-methyl-1H-benzo[d]imidazol-2-yl)pyrazin-2-amine]: the negative logarithm of the Ki (pKi) was 6.00 to 7.00. The figure for `CCNC(=O)[C@@H]1CCCN1c1cnc(N)c(-c2nnc(-c3ccc(CNC)cc3)o2)n1` [Compound I-348, (25)-1-[5-Amino-6-[5-[4-(methylaminomethyl)phenyl]-1,3,4-oxadiazol-2-yl]pyrazin-2-yl]-N-ethyl-pyrrolidine-2-carboxamide] is 5.00 to 6.00. Next, `Cc1ccc2nc(-c3nc(N4CCOCC4)cnc3N)[nH]c2c1` [Compound I-3, 3-(6-methyl-1H-benzo[d]imidazol-2-yl)-5-morpholinopyrazin-2-amine]: 6.00 to 7.00; `CCNC(=O)C1CC1c1cnc(N)c(-c2nnc(-c3ccc(CNC)cc3)o2)n1` (centres unmarked) [Compound I-375, 2-[5-Amino-6-[5-[4-(methylaminomethyl)phenyl]-1,3,4-oxadiazol-2-yl]pyrazin-2-yl]-N-ethyl-cyclopropanecarboxamide]: 6.00 to 7.00. The figure for `CN(C)CC(=O)N1CC=C(c2cnc(N)c(-c3nnc(-c4ccccc4)o3)n2)CC1` [Compound I-134, 1-(4-(5-amino-6-(5-phenyl-1,3,4-oxadiazol-2-yl)pyrazin-2-yl)-5,6-dihydropyridin-1(2H)-yl)-2-(dimethylamino)ethanone] is 6.00 to 7.00; for `CCS(=O)(=O)N1CC=C(c2cnc(N)c(C(=O)Nc3nc4ccccc4[nH]3)n2)CC1` [Compound I-172, 3-amino-N-(1H-benzo[d]imidazol-2-yl)-6-(1-(ethylsulfonyl)-1,2,3,6-tetrahydropyridin-4-yl)pyrazine-2-carboxamide] it is more than 7.00; for `Nc1ncc(C2=CCN(C(=O)c3cccnc3)CC2)nc1-c1nc2ccccc2[nH]1` [Compound I-191] it is 6.00 to 7.00. In the case of `Nc1ncc(N2CCN(S(=O)(=O)c3ccccc3)CC2)nc1-c1nc2ccccc2[nH]1` [Compound I-110, 3-(1H-benzo[d]imidazol-2-yl)-5-(4-(phenylsulfonyl)piperazin-1-yl)pyrazin-2-amine], the pKi is 6.00 to 7.00.

Consider `Nc1ncc(C2=CCN(C(=O)N3CCOCC3)CC2)nc1-c1nnc(-c2ccccc2)o1` [Compound I-217, (4-(5-amino-6-(5-phenyl-1,3,4-oxadiazol-2-yl)pyrazin-2-yl)-5,6-dihydropyridin-1(2H)-yl)(morpholino)methanone], for which the pKi was more than 7.00. The figure for `CCC(=O)N1CC=C(c2cnc(N)c(-c3nnc(-c4ccc(CNC)cc4)o3)n2)CC1` [Compound I-335, 1-[4-[5-Amino-6-[5-[4-(methylaminomethyl)phenyl]-1,3,4-oxadiazol-2-yl]pyrazin-2-yl]-3,6-dihydro-2H-pyridin-1-yl]propan-1-one] is 6.00 to 7.00; for `CC(=O)N1CC=C(c2cnc(N)c(-c3nc4ccccc4[nH]3)n2)CC1` [Compound I-136, 1-(4-(5-amino-6-(1H-benzo[d]imidazol-2-yl)pyrazin-2-yl)-5,6-dihydropyridin-1(2H)-yl)ethanone] it is more than 7.00; for `CNC(=O)[C@@H]1CCN(c2cnc(N)c(-c3nc4ccc(C)cc4[nH]3)n2)C1` [Compound I-77, (R)-1-(5-amino-6-(6-methyl-1H-benzo[d]imidazol-2-yl)pyrazin-2-yl)-N-methylpyrrolidine-3-carboxamide] it is 5.00 to 6.00. The figure for `CCS(=O)(=O)N1CC2CN(c3cnc(N)c(-c4nnc(-c5ccc(CNC)cc5)o4)n3)CC2C1` (centres unmarked) [Compound I-332, 5-(2-Ethylsulfonyl-1,3,3a,4,6,6a-hexahydropyrrolo[3,4-c]pyrrol-5-yl)-3-[5-[4-(methylaminomethyl)phenyl]-1,3,4-oxadiazol-2-yl]pyrazin-2-amine] is 5.00 to 6.00; for `Cc1ccc2nc(-c3nc(N4CCN(c5ccccc5)CC4)cnc3N)[nH]c2c1` [Compound I-30, 3-(6-methyl-1H-benzo[d]imidazol-2-yl)-5-(4-phenylpiperazin-1-yl)pyrazin-2-amine] it is 6.00 to 7.00. As to `CCS(=O)(=O)N1CCN(c2cnc(N)c(-c3nnc(-c4cccs4)o3)n2)CC1` [Compound I-312, 5-(4-ethylsulfonylpiperazin-1-yl)-3-[5-(2-thienyl)-1,3,4-oxadiazol-2-yl]pyrazin-2-amine], the negative logarithm of the Ki (pKi) is 6.00 to 7.00. Next, `NCCCS(=O)(=O)N1CC=C(c2cnc(N)c(-c3nc4ccccc4[nH]3)n2)CC1` [Compound I-331, 5-(1-(3-aminopropylsulfonyl)-1,2,3,6-tetrahydropyridin-4-yl)-3-(1H-benzo[d]imidazol-2-yl)pyrazin-2-amine]: more than 7.00; `Nc1ncc(C2=CCN(C(=O)c3ccccn3)CC2)nc1-c1nc2ccccc2[nH]1` [Compound I-139, (4-(5-amino-6-(1H-benzo[d]imidazol-2-yl)pyrazin-2-yl)-5,6-dihydropyridin-1(2H)-yl)(pyridin-2-yl)methanone]: more than 7.00. The figure for `CC(=O)N1CCCN(c2cnc(N)c(-c3nc4ccc(C)cc4[nH]3)n2)CC1` [Compound I-1, 1-(4-(5-amino-6-(6-methyl-1H-benzo[d]imidazol-2-yl)pyrazin-2-yl)-1,4-diazepan-1-yl)ethanone] is 5.00 to 6.00; for `Nc1ncc(N2CCN(S(=O)(=O)c3cccs3)CC2)nc1C(=O)Nc1ccccn1` [Compound I-116, 3-amino-N-(pyridin-2-yl)-6-(4-(thiophen-2-ylsulfonyl)piperazin-1-yl)pyrazine-2-carboxamide] it is 6.00 to 7.00; for `Nc1ncc(C2=CCN(S(=O)(=O)C3CC3)CC2)nc1-c1nc2ccccc2[nH]1` [Compound I-93, 3-(1H-benzo[d]imidazol-2-yl)-5-(1-(cyclopropylsulfonyl)-1,2,3,6-tetrahydropyridin-4-yl)pyrazin-2-amine] it is more than 7.00. With `CNCc1ccc(-c2nnc(-c3nc(N4CCC[C@@H]4CO)cnc3N)o2)cc1` [Compound I-356, [(2R)-1-[5-Amino-6-[5-[4-(methylaminomethyl)phenyl]-1,3,4-oxadiazol-2-yl]pyrazin-2-yl]pyrrolidin-2-yl]methanol], the negative-log Ki (pKi) is 6.00 to 7.00. With `CC(C)C(=O)N1CCN(c2cnc(N)c(-c3nnc(-c4ccccc4)o3)n2)CC1` [Compound I-190, 1-(4-(5-amino-6-(5-phenyl-1,3,4-oxadiazol-2-yl)pyrazin-2-yl)piperazin-1-yl)-2-methylpropan-1-one], the negative logarithm of the Ki (pKi) was 6.00 to 7.00.

Take `CCS(=O)(=O)N1CCN(c2cnc(N)c(-c3nnc(-c4ccc(CNC)cc4)o3)n2)C[C@@H]1C` [Compound I-345, 5-[(35)-4-Ethylsulfonyl-3-methyl-piperazin-1-yl]-3-[5-[4-(methylaminomethyl)phenyl]-1,3,4-oxadiazol-2-yl]pyrazin-2-amine]: the pKi is more than 7.00. Next, `CNCc1ccc(-c2nnc(-c3nc(C4CC4C(=O)N4CC[C@@H](N)C4)cnc3N)o2)cc1` (stereo partly drawn) [Compound I-374, (2-(5-Amino-6-(5-(4-((methylamino)methyl)phenyl)-1,3,4-oxadiazol-2-yl)pyrazin-2-yl)cyclopropyl)((R)-3-aminopyrrolidin-1-yl)methanone]: 5.00 to 6.00; `Nc1ncc(C2=CCN(C(=O)C3CC3)CC2)nc1-c1nnc(-c2ccccc2)o1` [Compound I-285, [4-[5-amino-6-(5-phenyl-1,3,4-oxadiazol-2-yl)pyrazin-2-yl]-3,6-dihydro-2H-pyridin-1-yl]-cyclopropyl-methanone]: more than 7.00. Turning to `CNCc1ccc(-c2nnc(-c3nc(N4C[C@H]5CCC(OS(C)(=O)=O)[C@H]5C4)cnc3N)o2)cc1` (some centres unmarked) [Compound I-320], the negative-log Ki (pKi) is more than 7.00.

Regarding `CCC(=O)N1CCN(c2cnc(N)c(-c3nnc(-c4ccc(CNC)cc4)o3)n2)C[C@H]1C` [Compound I-315, 1-[(2R)-4-[5-Amino-6-[5-[4-(methylaminomethyl)phenyl]-1,3,4-oxadiazol-2-yl]pyrazin-2-yl]-2-methyl-piperazin-1-yl]propan-1-one], the negative logarithm of the Ki (pKi) was 6.00 to 7.00. The figure for `CCC(CC)C(=O)N1CC=C(c2cnc(N)c(-c3nnc(-c4ccccc4)o3)n2)CC1` [Compound I-131, 1-(4-(5-amino-6-(5-phenyl-1,3,4-oxadiazol-2-yl)pyrazin-2-yl)-5,6-dihydropyridin-1(2H)-yl)-2-ethylbutan-1-one] is more than 7.00.
